Assay results as given in US7855292B2, “Sulfonamide compounds” (Janssen Pharmaceutica NV, priority 2004, dated 2010).
Where a name gives a salt, the structure may show the parent alone.

Assays:
CCK-1 receptor = molecular target: T1, CCK-1 receptor (Homo sapiens, UniProt P32238); assay: CCK1 binding assay ([125I]-BH-CCK-8S displacement, CHO-K1 membranes); settings: membranes of CHO-K1 cells stably transfected with the CCK-1 receptor, 20 pM [125I]-BH-CCK-8S, 0.3 μM PD-134,308 present, 60 min at 21±3° C.
T1 construct: expressed in transfected cells; host or cells: CHO-K1
T1 sequence (P32238 1-428): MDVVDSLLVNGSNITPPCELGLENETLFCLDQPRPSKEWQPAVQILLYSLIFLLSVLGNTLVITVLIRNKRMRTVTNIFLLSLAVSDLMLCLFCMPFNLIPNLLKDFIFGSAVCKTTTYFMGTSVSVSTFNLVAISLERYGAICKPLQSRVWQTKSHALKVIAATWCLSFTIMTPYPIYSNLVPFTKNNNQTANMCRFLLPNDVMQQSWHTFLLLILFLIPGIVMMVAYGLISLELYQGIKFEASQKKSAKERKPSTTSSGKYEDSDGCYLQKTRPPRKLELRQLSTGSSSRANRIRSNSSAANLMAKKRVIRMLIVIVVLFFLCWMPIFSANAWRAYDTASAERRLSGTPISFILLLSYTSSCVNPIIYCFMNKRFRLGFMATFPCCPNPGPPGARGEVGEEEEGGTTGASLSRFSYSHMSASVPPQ
Procedure: 1. CCK1 Assay Development and Data Generation
CHO-K1 cells that had undergone stable transfection with the CCK-1 receptor were grown in DMEM supplemented with L-glutamine (2 mM), penicillin (50 units/mL) and streptomycin (50 μg/mL). Cells were cultured under continuous G418 selection (2 mM) and were harvested using a rubber cell scraper. CHO-K1 cells were sub-cultured a maximum of ten times before being reseeded from the original stocks.
Membranes were prepared from the stably transfected CHO-K1 cells. Frozen cell pellets (−40° C.) were thawed in 14 mL of buffer A (10 mM HEPES, 130 mM NaCl, 4.7 mM KCl, 5 mM MgCl, 1 mM EGTA and 15.4 mg/100 mL bacitracin at pH 7.2), adapted from Harper et al. (Br. J. Pharmacol. 1996, 118:1717-1726). The thawed pellets were homogenized using a Polytron PT-10 (7×1 s). The homogenates were centrifuged for 5 min at 1500 rpm (600×g), and the resulting pellets were discarded. The supernatants were re-centrifuged in order to collect the receptor-membrane pellets (25 min 15,000 rpm; 39,800×g), which were re-suspended in buffer A.
All assays were conducted in 96-well plates (GF/B millipore filter plates) using buffer A, with 0.3 μM PD-134,308, for the dilutions. The CCK-2 receptor ligand was included to eliminate the contribution of this receptor subtype to the binding. For the optimal cell number determination experiments 20 pM [^125I]-BH-CCK-8S (50 μL […] solution) was incubated with a range of cell concentrations ([…] to 12.5×10^5 cells/well) in a total volume of 150 μL. Total binding of [^125I]-BH-CCK-8S was determined in the presence of 15 μL of buffer A. Non-specific binding of [^125I]-BH-CCK-8S was determined in the presence of 15 μL of 100 μM 2-naphthalenesulphonyl L-aspartyl-(2-phenethyl)amide (2-NAP: see R. A. Hull et al. Br. J. Pharmacol. 1993, 108:734-740), a CCK-1 receptor selective antagonist that is structurally unrelated to the radioligand [^125I]-BH-CCK-8S. The assay preparation was incubated for 1 h at 21±3° C., and then the assay was terminated upon rapid filtration of the preparation under reduced pressure. The loaded filters were washed three times using undiluted PBS ([…]), and then the residues were transferred to 5 mL scintillation tubes. Bound radioactivity was determined using a gamma counter (count time=1 min). […] To validate the radioligand concentration and incubation time for the assay, saturation and kinetic binding studies were also conducted (see M. F. Morton, The Pharmacological Characterization of Cholecystokinin Receptors in the Human Gastrointestinal Tract. PhD Thesis, University of London, 2000). […] The assay was then terminated according to the procedure outlined above.
(§1) 3. Data Analysis for CCK1 and CCK2 Binding Assays
The pKi values were determined using the equation of Y.-C. Cheng and W. H. Prusoff (Biochem. Pharmacol., 1973, 22(23):3099-3108):
(§2) [formula] To circumvent problems associated with computer-assisted data analysis of compounds with low affinity, the data obtained in the current study were weighted according to a method described by Morton. In brief, 100% and 0% specific binding were defined independently using total binding and binding obtained in the presence of a high concentration of the reference antagonist, 2-NAP.

CCK2 receptor = molecular target: T2, CCK2 receptor (Homo sapiens, UniProt P32239); assay: CCK2 binding assay ([125I]-BH-CCK-8S displacement, HEKZFP membranes); settings: membranes of doxycycline-induced HEKZFP cells, 20 pM [125I]-BH-CCK-8S, 60 min at 21±3° C.; for Ki: read-out: CCK2 pKi (converted)
T2 construct: analyzed for ZFP expression as well as CCK2R induction upon addition of doxycycline to the culture medium; endogenous in cells
T2 sequence (P32239 1-447): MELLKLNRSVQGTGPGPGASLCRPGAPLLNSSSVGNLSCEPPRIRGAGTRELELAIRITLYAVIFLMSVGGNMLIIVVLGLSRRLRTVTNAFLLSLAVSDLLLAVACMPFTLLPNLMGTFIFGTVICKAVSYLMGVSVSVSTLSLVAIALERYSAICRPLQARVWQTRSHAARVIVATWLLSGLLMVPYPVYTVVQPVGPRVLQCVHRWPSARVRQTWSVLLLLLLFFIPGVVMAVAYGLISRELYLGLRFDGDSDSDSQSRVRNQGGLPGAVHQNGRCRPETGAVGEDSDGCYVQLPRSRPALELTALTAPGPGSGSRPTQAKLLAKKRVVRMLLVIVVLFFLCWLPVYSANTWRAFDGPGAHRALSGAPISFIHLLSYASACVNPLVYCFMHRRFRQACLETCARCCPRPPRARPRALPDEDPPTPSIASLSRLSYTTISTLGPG
Procedure: 2. CCK2 Assay Development and Data Generation
Zinc Finger Proteins (ZFP) specific for the CCK2R gene were identified by Sangamo Biosciences. The ZFP domain was fused with the herpes simplex virus VP16 activation domain, and the fusion protein was subsequently cloned into the pcDNA3 mammalian expression vector (Invitrogen, San Diego, Calif.). […] After 2 weeks of selection in culture medium containing […] Zeocin (Invitrogen), sixty drug-resistant stable clones were isolated and analyzed for ZFP expression as well as CCK2R induction upon addition of doxycycline to the culture medium.
HEKZFP cells were grown in DMEM supplemented with L-glutamine (2 mM), penicillin (50 units/mL) and streptomycin (50 μg/mL) and 10% FBS (v/v).
Membranes were prepared from the HEKZFP cells after induction. […] The thawed pellets were homogenized using a Polytron PT-10 (7×1 s). The homogenates were centrifuged for 5 min at 1500 rpm (600×g), and the resulting pellets were discarded. The supernatants were re-centrifuged in order to collect the receptor-membrane pellets (25 min 15,000 rpm; 39,800×g), which were re-suspended in buffer A.
The assay preparation was incubated for 1 h at 21±3° C., and then the assay was terminated by rapid filtration of the preparation under reduced pressure. The loaded filters were washed three times using undiluted PBS (100 μL), and then 100 μL of scintillation fluid was added to the filter plate. Bound radioactivity was determined using a Topcount (Packard BioScience, Meriden, Conn.) with a count time of 1 min. […] To validate the radioligand concentration and incubation time for the assay, saturation and kinetic binding studies were also conducted (see M. F. Morton, The Pharmacological Characterization of Cholecystokinin Receptors in the Human Gastrointestinal Tract. PhD Thesis, University of London, 2000). […] The assay was then terminated according to the procedure outlined above.
as §1
The pKi values were determined using the equation of Y.-C.
as §2

Row | Compound | Ki (CCK2 receptor) [nM] | also measured
1 | O=C(NCC(c1ccc(Cl)cc1)c1ccc(Cl)cc1)c1ccc(Cl)cc1NS(=O)(=O)c1cccc2nsnc12 [Example 6, 2-(Benzo[1,2,5]thiadiazole-4-sulfonylamino)-N-[2,2-bis-(4-chloro-phenyl)-ethyl]-4-chloro-benzamide] |  | CCK1 pKi (CCK-1 receptor): 7.5
2 | O=C(N[C@@H](Cc1ccccc1)C(=O)O)c1ccc(Br)cc1NS(=O)(=O)c1cccc2nsnc12 [Example 25, 2-[2-(Benzo[1,2,5]thiadiazole-4-sulfonylamino)-4-bromo-benzoylamino]-3-phenyl-propionic acid] | 39.8 | 
3 | O=C(N[C@@H](Cc1ccccc1)C(=O)O)c1ccc(I)cc1NS(=O)(=O)c1cccc2nccnc12 [Example 27, 2-[4-Iodo-2-(quinoxaline-5-sulfonylamino)-benzoylamino]-3-phenyl-propionic acid] | 31.6 | 
4 | O=C(N[C@@H](Cc1ccccc1)C(=O)O)c1ccc(I)cc1NS(=O)(=O)c1cccc2scnc12 [Example 28, 2-[2-(Benzothiazole-4-sulfonylamino)-4-iodo-benzoylamino]-3-phenyl-propionic acid] | 79.4 | 
5 | CN(CCc1ccccn1)C(=O)c1ccc(Cl)cc1NS(=O)(=O)c1cccc2nsnc12 [Example 51, 2-(Benzo[1,2,5]thiadiazole-4-sulfonylamino)-4-chloro-N-methyl-N-(2-pyridin-2-yl-ethyl)-benzamide hydrochloride] | 794 | 
6 | N#Cc1cccc(C[C@H](NC(=O)c2ccc(Cl)cc2NS(=O)(=O)c2cccc3nccnc23)C(=O)O)c1 [Example 63, (S)-2-[4-Chloro-2-(quinoxaline-5-sulfonylamino)-benzoylamino]-3-(3-cyano-phenyl)-propionic acid] | 31.6 | 
7 | C[C@@H](NC(=O)c1ccc(Cl)cc1NS(=O)(=O)c1cccc2nsnc12)C(O)(c1ccccc1)c1ccccc1 [Example 73, (R)-2-(Benzo[1,2,5]thiadiazole-4-sulfonylamino)-4-chloro-N-(2-hydroxy-1-methyl-2,2-diphenyl-ethyl)-benzamide] |  | Ki (CCK-1 receptor; read-out: CCK1 pKi (converted)): 158 nM
8 | O=C(N[C@@H](Cc1ccsc1)C(=O)O)c1ccc(Cl)cc1NS(=O)(=O)c1cccc2nsnc12 [Example 77, (S)-2-[2-(Benzo[1,2,5]thiadiazole-4-sulfonylamino)-4-chloro-benzoylamino]-3-thiophen-3-yl-propionic acid] | 31.6 | 
9 | O=C(N[C@@H](Cc1cccc([N+](=O)[O-])c1)C(=O)O)c1ccc(Cl)cc1NS(=O)(=O)c1cccc2nccnc12 [Example 84, (S)-2-[4-Chloro-2-(quinoxaline-5-sulfonylamino)-benzoylamino]-3-(3-nitro-phenyl)-propionic acid] | 31.6 | 
10 | O=C(N[C@@H](Cc1ccc(F)c(F)c1)C(=O)O)c1ccc(Cl)cc1NS(=O)(=O)c1cccc2nccnc12 [Example 85, (S)-2-[4-Chloro-2-(quinoxaline-5-sulfonylamino)-benzoylamino]-3-(3,4-difluoro-phenyl)-propionic acid] | 63.1 | 
11 | N#Cc1ccc(C[C@H](NC(=O)c2ccc(Cl)cc2NS(=O)(=O)c2cccc3nccnc23)C(=O)O)cc1 [Example 86, (S)-2-[4-Chloro-2-(quinoxaline-5-sulfonylamino)-benzoylamino]-3-(4-cyano-phenyl)-propionic acid] | 31.6 | 
12 | O=C(N[C@@H](Cc1ccsc1)C(=O)O)c1ccc(Cl)cc1NS(=O)(=O)c1cccc2nccnc12 [Example 87, (S)-2-[4-Chloro-2-(quinoxaline-5-sulfonylamino)-benzoylamino]-3-thiophen-3-yl-propionic acid] | 158 | 
13 | O=C(N[C@H](C(=O)O)C(c1ccc(Cl)cc1)c1ccc(Cl)cc1)c1ccc(Cl)cc1NS(=O)(=O)c1cccc2nsnc12 [Example 106, (S)-2-[2-(Benzo[1,2,5]thiadiazole-4-sulfonylamino)-4-chloro-benzoylamino]-3,3-bis-(4-chloro-phenyl)-propionic acid] |  | CCK2 pKi (CCK2 receptor): 5.9
14 | O=C(N[C@@H](Cc1ccc(Cl)c(Cl)c1)C(=O)O)c1ccc(Cl)cc1NS(=O)(=O)c1cccc2nsnc12 [Example 117, (S)-2-[2-(Benzo[1,2,5]thiadiazole-4-sulfonylamino)-4-chloro-benzoylamino]-3-(3,4-dichloro-phenyl)-propionic acid] |  | CCK1 pKi (CCK-1 receptor): 6.6
15 | O=C(N[C@@H](Cc1ccc(F)c(Br)c1)C(=O)O)c1cc(Cl)c(Cl)cc1NS(=O)(=O)c1cccc2nsnc12 [Example 157, (S)-2-[2-(Benzo[1,2,5]thiadiazole-4-sulfonylamino)-4,5-dichloro-benzoylamino]-3-(3-bromo-4-fluoro-phenyl)-propionic acid] |  | CCK2 pKi (CCK2 receptor): 8.0
